{"source": "patent US20190124918A1", "about": "“BIOFILM FORMATION INHIBITOR AND BIOFILM FORMATION INHIBITING COMPOSITION” (KAO CORPORATION, priority 2016, published 2019)", "format_in_all_cases": "cell-based", "key": {"[1]": {"test_system": "biofilm-forming microbe isolated from cooling water taken from a water cooling tower", "experiment": "Biofilm inhibition test, quinone-based compound and organic solvent (OD570)", "details": "alone or added as test solution in organic solvent, no addition gave 2.831", "experimental": "A biofilm-forming microbe (microbe providing a OD570 value of 0.3 or more in the test for determining the amount of biofilm in the following section 4-3) isolated from cooling water taken from a water cooling tower was cultured in R2A culture medium at 30° C. for 16 hours while shaking. The turbidity (OD600) of the resultant culture solution was measured. The culture solution was diluted with R2A culture medium to prepare a suspension of 10^3 cfu/mL.\nThe suspension of a test microbe prepared in the above section 4-1) was added in individual wells of a 96 well microplate in an amount of 150 μL. Thereafter, the test solution prepared in the above section 2) was add and culture was initiated.\nThe 96 well microplate was subjected to stationary culture performed at 30° C. for 48 hours. The culture solution was removed and the resultant microplate was washed with water. Subsequently, each well was stained with 0.1% crystal violet and 200 μL of ethanol was added. The absorbance (OD570) was measured to obtain the amount of biofilm (BF) formed."}, "[2]": {"test_system": "Pseudomonas PAO1 strain (ATCC 15692)", "experiment": "Amount of biofilm formed (crystal violet, OD570), 96-well microplate culture", "in_short": "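PAO1 suspension in Mueller Hinton Broth (OD600 1/10^6) grown stationary 24 h at 30 °C with compounds dried from ethanol plus DMSO, final about 7–333 ppm or as listed. Biofilm stained with 0.1% crystal violet, ethanol-eluted, OD570; inhibition % = {1−(compound OD570/ethanol-control OD570)}×100.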"}, "[3]": {"test_system": "Pseudomonas PAO1 strain (ATCC 15692)", "experiment": "Growth of test microbe (turbidity OD600), 96-well microplate culture", "in_short": "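P. aeruginosa PAO1 diluted in Mueller Hinton Broth, exposed to test compound (ethanol stock evaporated onto DMSO in wells) and grown static at 30° C for 24 h; growth read as OD600. Growth inhibition % = (1 − compound OD600/ethanol-control OD600) × 100.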"}, "[4]": {"details": "high concentration range of 200 ppm or more"}}, "data": [{"smiles": "CC1=CC(=O)C=CC1=O", "note": "[Compound a, p-Toluquinone]", "values": [{"measurement": "OD570", "setting": "[1]; Toluquinone 10 ppm", "result": 0.119}, {"measurement": "OD570", "setting": "[1]; Toluquinone 20 ppm", "result": 0.083}, {"measurement": "The amount of the biofilm formed OD570", "setting": "[2]; final concentration 7 ppm, EtOH control 0.9163", "result": 0.7549}, {"measurement": "BF inhibition (%)", "setting": "[2]; final concentration 17 ppm", "result": 18.6, "unit": "%"}, {"measurement": "The amount of the biofilm formed OD570", "setting": "[2]; final concentration 20 ppm, EtOH control 0.9564", "result": 0.8231}, {"measurement": "BF inhibition (%)", "setting": "[2]; final concentration 33 ppm", "result": 36.6, "unit": "%"}, {"measurement": "The amount of the biofilm formed OD570", "setting": "[2]; final concentration 33 ppm, EtOH control 0.8974", "result": 0.7891}, {"measurement": "BF inhibition (%)", "setting": "[2]; final concentration 66 ppm", "result": 39.9, "unit": "%"}, {"measurement": "The amount of the biofilm formed OD570", "setting": "[2]; final concentration 67 ppm, EtOH control 0.8853", "result": 0.7094}, {"measurement": "BF inhibition (%)", "setting": "[2]; final concentration 99 ppm", "result": 73.7, "unit": "%"}, {"measurement": "BF inhibition (%)", "setting": "[2]; final concentration 116 ppm", "result": 86.3, "unit": "%"}, {"measurement": "BF inhibition (%)", "setting": "[2]; final concentration 132 ppm", "result": 85.1, "unit": "%"}, {"measurement": "The amount of the biofilm formed OD570", "setting": "[2]; final concentration 200 ppm, EtOH control 0.9248", "result": 0.7089}, {"measurement": "The amount of the biofilm formed OD570", "setting": "[2]; final concentration 333 ppm, EtOH control 0.9562", "result": 0.1222}, {"measurement": "biofilm formation (in words)", "setting": "[2]; [4]", "result": "inhibited"}, {"measurement": "biofilm formation (in words)", "setting": "[2]; low concentration range of less than 200 ppm", "result": "inhibited"}, {"measurement": "Growth OD600", "setting": "[3]; final concentration 7 ppm, EtOH control 0.5913", "result": 0.645}, {"measurement": "Growth inhibition (%)", "setting": "[3]; final concentration 17 ppm", "result": 14.2, "unit": "%"}, {"measurement": "Growth OD600", "setting": "[3]; final concentration 20 ppm, EtOH control 0.6346", "result": 0.5907}, {"measurement": "Growth inhibition (%)", "setting": "[3]; final concentration 33 ppm", "result": 15.4, "unit": "%"}, {"measurement": "Growth OD600", "setting": "[3]; final concentration 33 ppm, EtOH control 0.668", "result": 0.6284}, {"measurement": "Growth inhibition (%)", "setting": "[3]; final concentration 66 ppm", "result": "— (No growth inhibition or no BF inhibition)"}, {"measurement": "Growth OD600", "setting": "[3]; final concentration 67 ppm, EtOH control 0.628", "result": 0.5489}, {"measurement": "Growth inhibition (%)", "setting": "[3]; final concentration 99 ppm", "result": "— (No growth inhibition or no BF inhibition)"}, {"measurement": "Growth inhibition (%)", "setting": "[3]; final concentration 116 ppm", "result": 1.8, "unit": "%"}, {"measurement": "Growth inhibition (%)", "setting": "[3]; final concentration 132 ppm", "result": 1.2, "unit": "%"}, {"measurement": "Growth OD600", "setting": "[3]; final concentration 200 ppm, EtOH control 0.6045", "result": 0.3857}, {"measurement": "Growth OD600", "setting": "[3]; final concentration 333 ppm, EtOH control 0.6088", "result": 0.3334}, {"measurement": "microbial growth (in words)", "setting": "[3]; [4]", "result": "inhibited"}]}]}
